# Measured values taken from ChEMBL document CHEMBL4373748, “Reinvestigation of Mycothiazole Reveals the Penta-2,4-dien-1-ol Residue Imparts Picomolar Potency and 8S Configuration” (ACS Med Chem Lett, 2020).
# pIC50: −log10 of the molar value.
# Legend:
# [1] = tested on: HCT-116; test: Cytotoxicity against human HCT116 cells assessed as reduction in cell viability incubated for 3 days by tryphan blue dye based assay; assay type: functional; conditions: HCT-116, 72 h
# [2] = Stability of compound in benzene-d6 by 1H-NMR analysis; assay type: physicochemical
# [3] = tested on: PANC-1; test: Cytotoxicity against human PANC1 cells assessed as reduction in cell viability incubated for 3 days by tryphan blue dye based assay; assay type: functional; conditions: PANC-1, 72 h
# [4] = (§1) Drug degradation assessed as methyl N-[(E)-8-[4-[(2E)-hexa-2,5-dienyl]-1,3-thiazol-2-yl]-3,7-dihydroxy-3-(hydroxymethyl)-8-methylnon-4-enyl]carbamate metabolite formation by measuring maximum absorbance units measured after preserving compound in amber vial containing methanol followed by drying using air stream for 24 hrs at room temperature by ultraviolet-photoiodide array detection method; assay type: physicochemical
# [5] = Stability of compound assessed as shelf life measured after preserving compound in amber vial containing 95% CH3CN and 5% H2O followed by drying using N2 stream and later punged-with argon followed by exposure to 4 degC for 24 hrs; assay type: physicochemical
# [6] = (§2) Drug degradation assessed as methyl N-[(E)-8-[4-[(2E)-hexa-2,5-dienyl]-1,3-thiazol-2-yl]-3,7-dihydroxy-3-(hydroxymethyl)-8-methylnon-4-enyl]carbamate metabolite formation by measuring relative abundance measured after preserving compound in amber vial containing 95% CH3CN and 5% H2O followed by drying using N2 stream and later punged-with argon followed by exposure to 4 degC for 24 hrs by LC-MS-TIC analysis; assay type: physicochemical
# [7] = as §1, with “relative abundance” for “maximum absorbance units”, “LC-MS-TIC analysis” for “ultraviolet-photoiodide array detection method”; assay type: physicochemical
# [8] = as §2, with “maximum absorbance units” for “relative abundance”, “ultraviolet-photoiodide array detection method” for “LC-MS-TIC analysis”; assay type: physicochemical
# [9] = as §2, with “stream” for “stream and later punged-with argon”, “direct light” for “4 degC”; assay type: physicochemical
# [10] = as §2, with “by” for “by measuring”, “in dark desiccator under vacuum” for “followed by exposure to 4 degC”; assay type: physicochemical
# [11] = as §1, with “95% CH3CN and 5% H2O” for “methanol”, “N2” for “air”, “stream followed by exposure to direct light” for “stream”, “hrs” for “hrs at room temperature”; assay type: physicochemical
# [12] = as §1, with “N2” for “air”; assay type: physicochemical
# [13] = tested on: HepG2; test: Cytotoxicity against human HepG2 cells assessed as reduction in cell viability incubated for 3 days by tryphan blue dye based assay; assay type: functional; conditions: HepG2, 72 h
# [14] = Stability of compound assessed as shelf life measured after preserving compound in amber vial containing 95% CH3CN and 5% H2O followed by drying using N2 stream and later punged-with argon in dark desiccator under vacuum for 24 hrs; assay type: physicochemical
# [15] = as §1, with “relative abundance” for “maximum absorbance units”, “N2” for “air”, “LC-MS-TIC analysis” for “ultraviolet-photoiodide array detection method”; assay type: physicochemical
# [16] = as §2, with “maximum absorbance units” for “relative abundance”, “in dark desiccator under vacuum” for “followed by exposure to 4 degC”, “ultraviolet-photoiodide array detection method” for “LC-MS-TIC analysis”; assay type: physicochemical
smiles,measurement,setting,value
C=CC/C=C\Cc1csc(C(C)(C)[C@H](O)C/C=C/C(O)(CO)CCNC(=O)OC)n1 (stereo partly specified),pIC50,[1],< 6.00
C=CC/C=C/Cc1csc(C(C)(C)[C@@H](C/C=C\C(=C)CCNC(=O)OC)OC(C)=O)n1,Stability,[2],>= 6 months
same,pIC50,[3],8.89
C=CC/C=C\Cc1csc(C(C)(C)[C@H](O)CC2C=C(CCNC(=O)OC)CON2c2ccccc2)n1 (stereo partly specified),pIC50,[3],< 6.00
C=CC/C=C/Cc1csc(C(C)(C)[C@H](O)C/C=C\C(=C)CCNC(=O)OC)n1,Drug degradation,[4],500000 a.u.
same,Stability,[5],3 to 6 weeks
same,pIC50,[1],9.46
same,Drug degradation,[6],20%
same,Drug degradation,[7],45%
same,Drug degradation,[8],500000 a.u.
same,Drug degradation,[9],60%
same,Drug degradation,[10],20%
same,Drug degradation,[11],280000 a.u.
same,Drug degradation,[12],500000 a.u.
same,pIC50,[13],9.57
same,pIC50,[3],9.80
same,Stability,[14],3 to 6 weeks
same,Drug degradation,[15],45%
same,Drug degradation,[16],500000 a.u.
C=CC/C=C\Cc1csc(C(C)(C)C(=O)C/C=C\C(=C)CCNC(=O)OC)n1,pIC50,[3],5.70
"C=CC/C=C\Cc1csc(C(C)(C)C(O)CC2C=C(CCNC(=O)OC)CN(c3ccccc3)O2)n1 (single isomer, unassigned)",pIC50,[3],< 6.00
